What was measured:
[1] = system: T cell lines derived from rats protected from EAE; assay: Proliferation of LN cells and T cell lines from rats protected by TCR Vβ8 peptide (Table 12); type: cell-based, rat
[2] = system: lymph node cells and Vβ8-44-54 selected T cell line
T cell immunity = T cell immunity / DH response induced by peptide; type: in vivo; settings: Lewis rats
From the text: Immunogenicity of peptides useful in the present invention can be screened by well-known methods, such as use of a DH response in an animal. In such a response, an animal is "sensitized" by injection of an appropriate dose of an antigen, typically subcutaneously (SC), frequently with an adjuvant, such as complete Freund's adjuvant (CFA). Generally about 5-15 days later, the response is "elicited" by challenging the animal, typically intradermally (ID), with an appropriate dose of the antigen, typically in saline or other buffer. The response is assessed 24-48 hours later. […]
The desired peptides, with sequences determined as described above, are prepared using standard synthesis techniques including solution and solid phase sequential amino acid conjugation and recombinant production in prokaryotic or eukaryotic hosts. Verification that the peptide prepared is immunogenic can easily be determined using a DH reaction in an animal (e.g., mouse or rat), as described above. […] The ear swelling response, measured 24 or 48 hours after challenge, serves as a simple and reliable measure of the presence of T cell-mediated immunity to the peptide.

LNC and T cell lines = assay: T cell proliferation after treatment of EAE with TCR Vβ8 39-59/CFA (Table 27); type: cell-based, rats
Protocol: Lymphocyte Proliferation: Activation of T cells was measured by ^3 H-Tdy uptake. 500,000 lymph node cells or 20,000 line cells in the presence of 1 million irradiated thymic accessory cells were incubated with culture medium and antigens in microtiter wells for 18 hours prior to the addition of 0.5 μBq labeled thymidine. The cell cultures were harvested onto glass fiber filters and counted by liquid scintillation techniques. Mean CPM were calculated from triplicate cultures. Standard deviations (SD) from replicate cultures varied <10% from the mean value.
^a Treated rats were injected s.q. with 50 μg TCR Vβ839-59
^b LW cells collected after the untreated group recovered from EAE

DTH response = assay: Delayed hypersensitivity responses to TCR peptides, ear swelling (Table 26); type: in vivo, Lewis rats
EAE [3] = assay: Clinical EAE in rats treated with TCR Vβ8(39-59) before or after onset (Table 22); type: in vivo; settings: Exp. 2; control TCR peptide, day 13
Protocol: The ability of the TCR Vβ8(39-59) given either SC (in adjuvant) or ID (in saline) to disrupt the disease process when given at various times after induction of EAE with GPBP was tested (Table 22). […] In both cases, with both routes of injection of the peptide, there was a significant reduction in the duration of the disease, though not in the severity or time of onset. The efficacy of the peptide given in saline via the ID route is of particular importance to human therapy, as it is preferred to SC injection in adjuvant.
In Experiment 2, the time of ID administration of the TCR peptide was varied, as was the dose. […] A delay in onset of the disease was also observed. Furthermore, the percentage of animals showing signs of the disease decreased. A larger dose of the peptide (200 μg) appeared less efficacious than the lower dose, possibly due to a short-term overload of the peptide which could have comprised the immune response generated against the TCR. Treatment with a similarly sized peptide corresponding to an irrelevant TCR had no effect on onset, severity or incidence of EAE, but may have reduced the duration somewhat (last line of Table 22).

TCR Vβ8(39-59) peptide = type: binding, rat
EAE [4] = assay: Prevention, suppression and treatment of EAE with TCR Vβ8-39-59 peptide (Table 25); type: in vivo, Lewis rats; settings: peptide/CFA s.q.
EAE [5] = assay: Prevention and suppression of EAE by immunization with TCR Vβ8(39-59) (Table 17); type: in vivo, Lewis rats; settings: 100 μg peptide/CFA day 0, Gp-S49S (100 μg) challenge day 0
EAE [6] = assay: Prevention of EAE by immunization with TCR peptide (Example VI); type: in vivo, Lewis rats; settings: for protection from EAE: Lewis rats
From the text: EAE is a well-recognized rat model of the human autoimmune disease, multiple sclerosis. […] In this model, the disease is induced by injecting the subject rat with an encephalitogenic form of myelin basic protein, such as, for example, guinea pig basic protein (GPBP) or a synthetic peptide that corresponds to residues 72-89 of GPBP (GPBP(72-89)). Injection of either of these peptides in complete Freund's adjuvant (CFA) induces encephalitogenic T cell clones that utilize preferentially the rat homologs of mouse TCR Vα2 and Vβ8 genes (Chou, Y. K., et al., J. Neurosci. Res. 22:181-187 (1989); Burns, F. R., et al., J. Exp. Med. 169:27-39 (1989)).
^1 EAE was induced by SC challenge with 50 μg GPBP + 400 μg
^2 Rats were injected SC with either: (1) 100 μg of the TCR peptid
^3 Values represent the mean of the maximum severity of EAE. 0, no

[7] = 100 μg peptide/CFA SC 30 days before GPBP/CFA

APGGTLQQLFYSFNVGQSLF [TCR Vβ14 peptide, control peptide, residues 39-59 of rat TCR homologous to mouse Vβ14, reference compound]
T Cell Proliferation ([1]; 1st value column (head not given; LN cells of protected rats)): 10 cpm × 10^-3
T Cell Proliferation ([1]; 2nd value column (head not given, TCR Vβ8(39-59)-selected line)): 2 cpm × 10^-3
Response of Lymph Node Cells [2]: 18 ± 2
Response of T Cell Line [2]: 9 ± 1
induction of T cell immunity (T cell immunity): did induce immunity
Proliferation (LNC and T cell lines; Treated rats, line Vβ8/1st): 8 ± 2 CPM/1000
Proliferation (LNC and T cell lines; Untreated rats (GPBP/CFA only), LNC): 29 ± 4 CPM/1000
Proliferation (LNC and T cell lines; Untreated rats, line BP/1st): 17 ± 2 CPM/1000
Proliferation (LNC and T cell lines; Untreated rats, line Vβ8/1st): 11 ± 2 CPM/1000
Proliferation (LNC and T cell lines; Untreated rats, line Vβ14/1st): 25 ± 6 CPM/1000
48 Hour DTH Response (DTH response; GP-BP/CFA immunized rats, ear test Day 12 (EAE onset)): 11 ± 4
48 Hour DTH Response (DTH response; Normal or saline/CFA rats, ear test Day 12): 10 ± 4
48 Hour DTH Response (DTH response; TCR Vβ8 peptide/CFA immunized rats, ear test Day 30): 9 ± 3
48 Hour DTH Response (DTH response; TCR Vβ814 (so in the source) peptide/CFA immunized rats, ear test Day 30): 40 ± 4
Day of Onset (EAE [3]): 13.7 ± 0.5
Disease Duration (EAE [3]): 3.5 ± 0.5
Disease Incidence (EAE [3]): 6/6
Disease Severity (EAE [3]): 2.5 ± 0.8
absorbance of serum on TCR Vβ8(39-59) peptide (A405) (TCR Vβ8(39-59) peptide): 0.02±0.01 units
Duration (EAE [4]; Day 0): 6.4 ± 0.3 days
EAE/TOTAL (EAE [4]; Day 0): 6/6
Max Clin. Signs (EAE [4]; Day 0): 3.3 ± 0.5
Onset (EAE [4]; Day 0): 12
Duration (EAE [4]; Day -40): 6.1 ± 0.6 days
EAE/TOTAL (EAE [4]; Day -40): 8/8
Max Clin. Signs (EAE [4]; Day -40): 3.2 ± 0.3
Onset (EAE [4]; Day -40): 12
Duration (EAE [4]; Day onset): 6.0 ± 1.5 days
EAE/TOTAL (EAE [4]; Day onset): 4/4
Max Clin. Signs (EAE [4]; Day onset): 3.0 ± 0.4
Onset (EAE [4]; Day onset): 12
Clinical Score (EAE [5]): 2.9
EAE Day of Onset (EAE [6]; [7]): 14 ± 2
EAE Duration (EAE [6]; [7]): 6 ± 2
EAE Severity (mean of maximum severity, scale 0-4) (EAE [6]; [7]): 3.1 ± 0.3
EAE Incidence (EAE [6]; 100 μg peptide/CFA SC 30 days before challenge with 50 μg GPBP/CFA): 4/4
protection from EAE (EAE [6]): did not confer protection against EAE
protection from EAE (EAE [6]; listed as Vβ14(39-59)): did not provide protection from EAE
